Test results from patent US20010014324A1 (priority 1998, published 2001).

How the values were obtained:
Phytophthora infestans = format: in vivo; settings: potato; standard chemical inducer at 500 ppm
[1] = system: Puccinia recondita spp. tritici; experiment: Induced plant defense on wheat against Puccinia recondita spp. tritici (spray treatment); format: in vivo
Method: Ten seeds of wheat ([…]) of the variety “Arina” were grown in pots of 8 cm diameter in a mixture of ⅓ sand and ⅔ TKS1® soil at +25° C. in a 16/8 h light/dark regime. for 7 days till the primary leaf was fully expended.
Brown rust strain Puccinia recondita spp. tritici was propagated on the same variety of wheat. Fully infected, sporulating leaves were cut and the spores dusted onto water containing 0.05% of Tween 20®. The inoculum density was adjusted to 100,000 spores per ml.
Wheat plants with the secondary leaf just emerging were sprayed 7 and 3 days before inoculation. The entire plant was sprayed with PEN extract containing 1-2 g of glucose equivalents and 0.05% of Tween 20 to near run-off with an air driven spray pistol, model JATO 232 FR at 0.5 bar.
After the treatment plants were kept in the greenhouse till they were challenge inoculated. Control plants were mock treated with distilled water.
Treated or control plants were sprayed with approximately 3 ml of sporangia suspension in a ventilated inoculation chamber using an air driven spray pistol, model JATO 232 FR at 0.2 bar to generate a homogeneous layer of fine troplets on the whole seedling.
When the troplets had dried, plants were transferred to Plexiglas boxes and kept at +20° C. and a 60% relative humidity for 24 h in the dark then light was switched on and the plants kept under the same conditions for additional four days. Afterwards plants were returned to the greenhouse and kept at standard conditions as described above.
10 days after inoculation, when the fungus sporulated on control plants, the degree of infection was visually determined as % of infected leaf area on the inoculated leaves plants. The degree of protection was calculated with respect to the control plants according to the formula: [formula]

Row | SMILES | % infected leaf area (Phytophthora infestans) [%] | % protection (Phytophthora infestans) [%] | % infected ([1]; concentration 30 ppm) [%] | % protection ([1]; concentration 30 ppm) [%] | % infected ([1]; concentration 60 ppm) [%] | % protection ([1]; concentration 60 ppm) [%]
1 | CC(N)CC(=O)O (stereo not drawn) [BABA, beta-butyric acid] | 23 | 61 | – | – | – | –
2 | CSC(=O)c1cccc2nnsc12 [CGA 245 704] | – | – | 31.3 | 48.8 | 60 | 20
